Results reported in patent US12715848B2, “Process for the diastereomerically pure preparation of DL/LD-methionylmethionine” (Evonik Operations GmbH, priority 2020, dated 2026).
≈ marks a conversion by molar mass, not a printed value. Residues, ends and D or L forms follow the SMILES beside them.

Experiments:
[1] = Water solubility at room temperature
[2] = Determination of bulk density (1 L measuring cylinder); type: physicochemical
Procedure: The bulk density in kg/L was determined using a 1 L measuring cylinder, which was filled with the bulk material precisely to the 1000 ml mark, and was measured by weighing the weight of the contents so as to result in the bulk density directly.

[3] = Minimum ignition energy; type: physicochemical
[4] = Dust content; type: physicochemical; details: fraction <63 μm

Structure (SMILES)	water solubility [1] [mg/mL]	bulk density [2] [kg/m^3]	minimum ignition energy ([3]; 100° C.)	minimum ignition energy ([3]; room temperature)	dust content [4]
CSCCC(N)C(=O)NC(CCSC)C(=O)O (stereo not drawn) [DDLL-Met-Met, DD/LL-methionylmethionine] (H-Met-Met-OH; configuration not given here)	21.0 (≈ 74.9 mM)	–	–	–	–
CSCCC(N)C(=O)NC(CCSC)C(=O)O (stereo not drawn) [DLLD-Met-Met, DL/LD-methionylmethionine] (H-Met-Met-OH; configuration not given here)	–	> 600	above 3 mJ	above 10 mJ	approx. 10%
